Experiment: Example 3: phase 3 trial, enavogliflozin 0.3 mg vs dapagliflozin 10 mg once a day for 24 weeks added to metformin and gemigliptin in patients with type 2 diabetes (same endpoints, rescue drug)
Assay type: in vivo, human
Method: 1) when Metformin (≥1,000 mg/Day) was Administered at a Constant Dose for at Least 8 Weeks Prior to Pre-Visit (Pre-Screening) • Metformin (≥1,000 mg/day) and gemigliptin (50 mg/day) were co-administered during the 8-week stabilization period. […] 4) when Metformin (≥1,000 mg/Day) and Gemigliptin (50 mg/Day) were Co-Administered at Constant Doses for at Least 8 Weeks Prior to Pre-Visit (Prescreening) • Without a separate stabilization period, Pre-visit (pre-screening) was Visit 1 (screening).
Subjects who met the inclusion/exclusion criteria continued to receive metformin and gemigliptin while receiving a placebo of the clinical trial drug in a single-blind (subject-blinded) state for a 2-week run-in period.
Here, the randomized subjects were stratified according to the administration therapy (co-administration with two or less agents (one or two agents) or three or more agents) of a conventional hypoglycemic agent (before washout of another hypoglycemic agent) within 24 weeks prior to obtaining written informed consent and by an HbA1c value (<8% or ≥8%) at Visit 1 (screening) measured in the central laboratory.
The randomized subjects were administered two tablets of the clinical trial drug corresponding to each administration group once a day, and then visited the institution at weeks 6, 12, 18, and 24 during the 24-week administration period to conduct efficacy and safety assessments. In addition, during the clinical trial period, they were instructed to exercise regularly and control their diet without changing their daily life patterns.
• 1) Change in HbA1c at week 24 after administration of clinical trial drug compared to Visit 2 (randomization)
• 1) Change in HbA1c at each time point of weeks 6, 12, and 18 after administration of clinical trial drug compared to Visit 2 (randomization) • 2) Change in FPG at each time point of weeks 6, 12, 18, and 24 after administration of clinical trial drug compared to Visit 2 (randomization) • 3) Proportion of subjects achieving HbA1c<7% at each time point of weeks 6, 12, 18, and 24 after administration of clinical trial drug • 4) Proportion of subjects achieving HbA1c<6.5% at each time point of weeks 6, 12, 18, and 24 after administration of clinical trial drug • 5) Proportion of subjects achieving therapeutic response (HbA1c change (HbA1c at Visit 2—HbA1c at each evaluation time point)>0.5% or HbA1c<7% at each evaluation time point compared to Visit 2 (randomization)) at each time point of weeks 6, 12, 18, and 24 after administration of clinical trial drug • 6) Proportion of subjects achieving therapeutic response (HbA1c change (HbA1c at Visit 2—HbA1c at each evaluation time point)>0.7% or HbA1c<7% at each evaluation time point compared to Visit 2 (randomization)) at each time point of weeks 6, 12, 18, and 24 after administration of clinical trial drug • 7) Proportion of subjects achieving therapeutic response (HbA1c change (HbA1c at Visit 2—HbA1c at each evaluation time point)>1% or HbA1c<7% at each evaluation time point compared to Visit 2 (randomization)) at each time point of weeks 6, 12, 18, and 24 after administration of clinical trial drug

[1] = week 18, per-protocol set, enavogliflozin 0.3 mg, dapagliflozin 10 mg
[2] = week 24, modified per-protocol set 1, enavogliflozin 0.3 mg vs dapagliflozin 10 mg
[3] = week 24, modified per-protocol set 1, enavogliflozin 0.3 mg, dapagliflozin 10 mg
[4] = week 24, modified per-protocol set 2

With OC[C@H]1O[C@@H](c2cc(Cc3ccc(C4CC4)cc3)c(Cl)c3c2CCO3)[C@H](O)[C@@H](O)[C@@H]1O [Enavogliflozin, (2S,3R,4R,5S,6R)-2-(7-chloro-6 (4-cyclopropylbenzyl)-2,3-dihydrobenzofuran-4-yl)-6-(hydroxymethyl)tetrahydro-2H-pyran-3,4,5-triol] the “HbA1c, Median” value [1] was 6.87%, the “Subjects achieving HbA1c target of <6.5%, (%)” value [1] was 14.53% and the “Subjects achieving HbA1c target of <7%, %” value [1] was 63.25%. The “body weight, Median” value [1] was 65.40 kg, the “Subjects achieving therapeutic glycemic response 2, %” value (week 18, per-protocol set, response 2 = HbA1c change >0.7% or HbA1c <7%, enavogliflozin 0.3 mg, dapagliflozin 10 mg) was 77.78% and the “Subjects achieving therapeutic glycemic response 3, %” value (week 18, per-protocol set, response 3 = HbA1c change >1% or HbA1c <7%, enavogliflozin 0.3 mg, dapagliflozin 10 mg) was 74.36%. For the same molecule, the “FPG change from baseline, LS mean (SE)” value (week 24) was −27.21(1.81) mg/dL, the “HDL-C change from baseline, LS mean (SE)” value (week 24) was 4.32(0.71) mg/dL and the “HOMA-IR change from baseline, LS mean (SE)” value (week 24) was −1.09(0.11). The “HOMA-β change from baseline, LS mean (SE)” value (week 24) was 1.09(4.79), the “HbA1c change from baseline, LS mean (SE)” value (week 24) was −0.92(0.05) % p and the “HbA1c change from baseline, Mean (SD)” value (week 24) was −0.93(0.70) % p. For the same molecule, the “LDL-C change from baseline, LS mean (SE)” value (week 24) was 0.85(1.89) mg/dL, the “UACR change from baseline, LS mean (SE)” value (week 24) was −15.34 (3.93) g/kg and the “UGCR change from baseline, LS mean (SE)” value (week 24) was 60.22(2.31) mg/mg. For the same molecule, the “adiponectin change from baseline, LS mean (SE)” value (week 24) was 1.42(0.35) μg/mL, the “body weight change from baseline, LS mean (SE)” value (week 24) was −3.15(0.23) kg and the “diastolic blood pressure change from baseline, LS mean (SE)” value (week 24) was −2.55(0.72) mmHg. The “fasting C-peptide change from baseline, LS mean (SE)” value (week 24) was −0.09(0.02) ng/ml, the “leptin change from baseline, LS mean (SE)” value (week 24) was −1.46(0.52) ng/mL and the “systolic blood pressure change from baseline, LS mean (SE)” value (week 24) was −4.49(0.96) mmHg. For the same molecule, the “total cholesterol change from baseline, LS mean (SE)” value (week 24) was 4.48(2.07) mg/dL, the “triglyceride change from baseline, LS mean (SE)” value (week 24) was −8.22(4.01) mg/dL and the “Odds ratio for administering the rescue drug” value (week 24, FAS, vs dapagliflozin) was 0.36. The “FPG change from baseline, LS mean difference” value (week 24, vs dapagliflozin) was -3.49 mg/dL, the “HDL-C change from baseline, LS mean difference” value (week 24, vs dapagliflozin) was -0.08 mg/dL and the “HOMA-IR change from baseline, LS mean difference” value (week 24, vs dapagliflozin) was −0.16. For the same molecule, the “HOMA-β change from baseline, LS mean difference” value (week 24, vs dapagliflozin) was −4.69, the “HbA1c change from baseline, LS mean difference” value (week 24, vs dapagliflozin) was −0.06 % p and the “LDL-C change from baseline, LS mean difference” value (week 24, vs dapagliflozin) was -2.27 mg/dL. For the same molecule, the “Odds ratio for achieving HbA1c<6.5%” value (week 24, vs dapagliflozin) was 1.27, the “Odds ratio for achieving HbA1c<7%” value (week 24, vs dapagliflozin) was 1.17 and the “Odds ratio, therapeutic response (HbA1c change >0.5% or HbA1c<7%)” value (week 24, vs dapagliflozin) was 1.15. For the same molecule, the “Odds ratio, therapeutic response (HbA1c change >0.7% or HbA1c<7%)” value (week 24, vs dapagliflozin) was 0.98, the “Odds ratio, therapeutic response (HbA1c change >1% or HbA1c<7%)” value (week 24, vs dapagliflozin) was 1.22 and the “UACR change from baseline, LS mean difference” value (week 24, vs dapagliflozin) was 0.79 g/kg. For the same molecule, the “UGCR change from baseline, LS mean difference” value (week 24, vs dapagliflozin) was 16.71 mg/mg, the “adiponectin change from baseline, LS mean difference” value (week 24, vs dapagliflozin) was 0.49 µg/mL and the “body weight change from baseline, LS mean difference” value (week 24, vs dapagliflozin) was -0.15 kg. The “diastolic blood pressure change from baseline, LS mean difference” value (week 24, vs dapagliflozin) was −0.66 mmHg, the “fasting C-peptide change from baseline, LS mean difference” value (week 24, vs dapagliflozin) was -0.01 ng/mL and the “leptin change from baseline, LS mean difference” value (week 24, vs dapagliflozin) was -0.89 ng/mL. The “systolic blood pressure change from baseline, LS mean difference” value (week 24, vs dapagliflozin) was −0.22 mmHg, the “total cholesterol change from baseline, LS mean difference” value (week 24, vs dapagliflozin) was -1.09 mg/dL and the “triglyceride change from baseline, LS mean difference” value (week 24, vs dapagliflozin) was 0.56 mg/dL. For the same molecule, the “Change from baseline in HDL-C, ANCOVA LS mean difference” value [2] was -0.08 mg/dL, the “Change from baseline in LDL-C, ANCOVA LS mean difference” value [2] was -2.27 mg/dL and the “Change from baseline in total cholesterol, ANCOVA LS mean difference” value [2] was -1.09 mg/dL. For the same molecule, the “Change from baseline in triglycerides, ANCOVA LS mean difference” value [2] was 0.56 mg/dL, the “Change from baseline in HDL-C, ANCOVA LS mean” value [3] was 4.32 mg/dL and the “Change from baseline in HDL-C, Mean” value [3] was 4.53 mg/dL. The “Change from baseline in HDL-C, Median” value [3] was 4.00 mg/dL, the “Change from baseline in LDL-C, ANCOVA LS mean” value [3] was 0.85 mg/dL and the “Change from baseline in LDL-C, Mean” value [3] was 1.75 mg/dL. The “Change from baseline in LDL-C, Median” value [3] was 0.50 mg/dL, the “Change from baseline in total cholesterol, ANCOVA LS mean” value [3] was 4.48 mg/dL and the “Change from baseline in total cholesterol, Mean” value [3] was 5.59 mg/dL. The “Change from baseline in total cholesterol, Median” value [3] was 5.50 mg/dL, the “Change from baseline in triglycerides, ANCOVA LS mean” value [3] was -8.22 mg/dL and the “Change from baseline in triglycerides, Mean” value [3] was -6.05 mg/dL. For the same molecule, the “Change from baseline in triglycerides, Median” value [3] was -1.00 mg/dL, the “Fasting HDL-C, Mean” value [3] was 50.58 mg/dL and the “Fasting HDL-C, Median” value [3] was 48.50 mg/dL. The “Fasting LDL-C, Mean” value [3] was 73.15 mg/dL, the “Fasting LDL-C, Median” value [3] was 70.50 mg/dL and the “Fasting total cholesterol, Mean” value [3] was 140.06 mg/dL. For the same molecule, the “Fasting triglycerides, Mean” value [3] was 113.01 mg/dL, the “Fasting triglycerides, Median” value [3] was 101.00 mg/dL and the “fasting Total cholesterol, Median” value [3] was 134.00 mg/dL. The “Change from baseline in diastolic blood pressure, ANCOVA LS mean” value [4] was −2.55 mmHg, the “Change from baseline in diastolic blood pressure, LS mean difference (enavogliflozin − dapagliflozin)” value [4] was −0.66 mmHg and the “Change from baseline in diastolic blood pressure, Mean” value [4] was −3.19 mmHg.

— patent US20260130933A1, “PHARMACEUTICAL COMPOSITION FOR PREVENTION OR TREATMENT OF NEPHROPATHY AND/OR DIABETES MELLITUS, COMPRISING ENAVOGLIFLOZIN” (DAEWOONG PHARMACEUTICAL CO., LTD., priority 2022, published 2026)
